Consider one compound from patent publication US20180021360A1, “Combination Therapy Regimen For Treatment Of Selected HCV Genotypes” (JANSSEN PHARMACEUTICALS, INC., priority 2016, published 2018).

Broadly, the Cmax is the peak of the concentration-time curve.

A short description of data set [1]: Phase-1 drug-drug interaction study of Odalasvir, Simeprevir and Compound (III) in healthy volunteers. The format is in vivo, human. An excerpt: The following daily doses were employed:
In data set [2] the target is MRP2 (Homo sapiens, UniProt Q92887). The note with it: cited from earlier work.
Chain of MRP2 (Q92887 whole entry): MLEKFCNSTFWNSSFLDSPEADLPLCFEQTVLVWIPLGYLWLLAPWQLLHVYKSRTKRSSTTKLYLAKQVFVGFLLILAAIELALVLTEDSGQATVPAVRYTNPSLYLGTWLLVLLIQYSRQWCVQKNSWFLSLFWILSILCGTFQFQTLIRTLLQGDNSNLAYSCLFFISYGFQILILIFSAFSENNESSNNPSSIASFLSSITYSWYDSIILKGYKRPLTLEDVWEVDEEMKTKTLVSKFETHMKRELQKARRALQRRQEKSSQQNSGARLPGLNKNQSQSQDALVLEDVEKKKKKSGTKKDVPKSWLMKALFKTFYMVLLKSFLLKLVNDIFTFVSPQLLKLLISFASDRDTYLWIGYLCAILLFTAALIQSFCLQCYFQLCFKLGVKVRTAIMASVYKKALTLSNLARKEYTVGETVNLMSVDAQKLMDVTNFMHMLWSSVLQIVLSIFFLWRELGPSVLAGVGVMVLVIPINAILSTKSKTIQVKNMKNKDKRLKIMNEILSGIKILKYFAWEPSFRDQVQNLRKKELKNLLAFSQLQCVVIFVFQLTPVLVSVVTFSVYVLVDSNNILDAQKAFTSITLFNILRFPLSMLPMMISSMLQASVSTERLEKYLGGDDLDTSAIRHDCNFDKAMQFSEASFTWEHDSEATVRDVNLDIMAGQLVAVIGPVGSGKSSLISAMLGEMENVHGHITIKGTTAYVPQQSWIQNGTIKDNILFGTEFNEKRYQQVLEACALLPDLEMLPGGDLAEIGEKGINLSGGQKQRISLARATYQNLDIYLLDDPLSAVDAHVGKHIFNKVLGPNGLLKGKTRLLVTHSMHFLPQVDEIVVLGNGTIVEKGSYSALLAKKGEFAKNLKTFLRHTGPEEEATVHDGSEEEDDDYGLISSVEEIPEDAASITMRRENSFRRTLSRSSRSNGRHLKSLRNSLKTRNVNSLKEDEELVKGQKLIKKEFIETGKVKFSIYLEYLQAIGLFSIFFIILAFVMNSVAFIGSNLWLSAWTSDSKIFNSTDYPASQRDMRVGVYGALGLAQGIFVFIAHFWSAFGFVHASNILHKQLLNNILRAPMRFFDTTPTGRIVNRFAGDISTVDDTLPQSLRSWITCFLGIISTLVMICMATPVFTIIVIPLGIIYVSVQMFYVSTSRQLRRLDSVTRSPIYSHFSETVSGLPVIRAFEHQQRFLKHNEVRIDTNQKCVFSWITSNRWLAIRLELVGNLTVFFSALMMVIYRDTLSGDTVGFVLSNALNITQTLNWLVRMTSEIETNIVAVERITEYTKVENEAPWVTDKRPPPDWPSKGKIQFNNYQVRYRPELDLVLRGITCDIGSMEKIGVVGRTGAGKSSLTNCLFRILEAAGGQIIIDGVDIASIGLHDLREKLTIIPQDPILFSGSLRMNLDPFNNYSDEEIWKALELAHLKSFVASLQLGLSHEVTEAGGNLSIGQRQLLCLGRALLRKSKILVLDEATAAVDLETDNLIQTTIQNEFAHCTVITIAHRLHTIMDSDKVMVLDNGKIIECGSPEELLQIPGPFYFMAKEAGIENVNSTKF
The test system of data set [3] is CYP. The data set can be described thus: CYP inhibition potential. Particulars: any CYP.
Data set [4] addresses P-gp (Homo sapiens, UniProt P08183). Particulars: cited from earlier work.
Data set [5] is described as follows: Phase 2a open-label combination study, pharmacokinetics. The format is in vivo, human. The procedure: A randomized, Phase 2a, open-label study was carried out to evaluate the safety, pharmacokinetics and efficacy of the combination of Compound (III), Odalasvir and Simeprevir in Genotype 1 treatment-naïve subjects with chronic hepatitis C. Other treatment-naïve subjects included Genotype 2, 3, 4, 5 and 6.
The aim of the study was to determine the efficacy, pharmacokinetics (PK), and safety of Compound (II)+Odalasvir±SMV in HCV-infected subjects.
This was an open-label study evaluating various dosing regimens of Compound (III)+Odalasvir±SMV for 6-8 weeks in treatment-nave HCV-infected subjects with varying clinical characteristics (e.g., GT 1 or 3, presence/absence of compensated Child Pugh A cirrhosis). Efficacy, PK and safety evaluations were conducted during and through 24 weeks post dosing. Up to 15 cohorts were enrolled; data was generated from cohorts that have completed dosing.

The target of data set [6] is T1, OATP1B1 (Homo sapiens, UniProt Q9Y6L6).
T1 sequence (Q9Y6L6 1-691): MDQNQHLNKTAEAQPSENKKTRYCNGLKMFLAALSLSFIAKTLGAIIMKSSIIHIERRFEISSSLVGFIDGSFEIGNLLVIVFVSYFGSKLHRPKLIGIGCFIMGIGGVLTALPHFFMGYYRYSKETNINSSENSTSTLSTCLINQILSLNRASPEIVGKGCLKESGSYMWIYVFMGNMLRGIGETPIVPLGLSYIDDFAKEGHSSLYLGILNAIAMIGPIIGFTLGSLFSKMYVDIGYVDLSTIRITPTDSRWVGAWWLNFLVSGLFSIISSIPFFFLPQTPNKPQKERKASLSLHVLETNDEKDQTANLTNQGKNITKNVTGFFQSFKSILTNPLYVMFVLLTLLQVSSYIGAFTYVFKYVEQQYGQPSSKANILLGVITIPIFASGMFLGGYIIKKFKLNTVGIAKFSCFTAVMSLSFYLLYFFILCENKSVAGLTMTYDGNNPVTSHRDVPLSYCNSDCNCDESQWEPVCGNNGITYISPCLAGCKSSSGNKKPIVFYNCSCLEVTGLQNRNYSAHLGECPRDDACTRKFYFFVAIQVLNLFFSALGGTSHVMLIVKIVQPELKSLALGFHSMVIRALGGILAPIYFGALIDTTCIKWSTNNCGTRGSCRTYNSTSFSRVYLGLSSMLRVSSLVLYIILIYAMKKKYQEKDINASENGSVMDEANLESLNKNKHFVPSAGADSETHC
The note with it: cited from earlier work.

Data set [7] has as its target BSEP (Homo sapiens, UniProt O95342). The note with it: cited from earlier work.
The conditions of data set [8]: co-administered with SMV; cited from earlier work.
For data set [9] the following is noted: co-administered with SMV; cited from earlier work. This is another data set of the same source.
The nature of data set [10]: PK of single agents vs fixed dose combinations, single dose in healthy volunteers (Example 13). Particulars: mean ± SD. The format is in vivo, human. The procedure: SMV (100 mg), ODV (50 mg), and Compound (III) (800 mg) were administered as three different formulations or together as single doses in vivo to healthy volunteers. The arms of the study included: • Arm 1 (Reference Arm): Single oral doses of single agents, one SMV 100-mg capsule, one ODV 50-mg tablet as granule layered solid dispersion with copovidone and poloxamers, and two Compound (III) 400-mg tablets, administered together. • Arm 2: Single oral dose of fixed dose combination (FDC02): SMV 100 mg+ODV 50 mg as a spray dried solid dispersion with HPMC-AS L in a ratio ODV/HPMC-AS L 1/1 w/w+Compound (III) 800 mg • Arm 3: Single oral dose of fixed dose combination (FDC04): SMV 100 mg+ODV 50 mg as a spray dried solid dispersion with HPMC-AS L in a ratio ODV/HPMC-AS L 1/3 w/w+Compound (III) 800 mg • Arm 4: Single oral dose of fixed dose combination (FDC01): SMV 100 mg+ODV 50 mg as a spray dried solid dispersion with copovidone and poloxamers+Compound (III) 800 mg
PK parameters, including Cmax, tmax, AUClast, and AUC∞ were measured for Compound (III), ODV, SMV, and metabolites Compound A-1 and Compound A-3 for each Arm of the study. Arms that included fixed dose combinations (FDC) (Arm 2, Arm 3, and Arm 4) were then compared to a single oral dose (Arm 1, the reference Arm). Table 9, Table 10, Table 11, Table 12 and Table 13 display relevant PK parameters and FIG. 9, FIG. 10, FIG. 11, FIG. 12, and FIG. 13 depict the plasma concentration over time of SMV, ODV, Compound A-1, and Compound A-3 for each Arm of the study.

Chain of BSEP (O95342 whole entry): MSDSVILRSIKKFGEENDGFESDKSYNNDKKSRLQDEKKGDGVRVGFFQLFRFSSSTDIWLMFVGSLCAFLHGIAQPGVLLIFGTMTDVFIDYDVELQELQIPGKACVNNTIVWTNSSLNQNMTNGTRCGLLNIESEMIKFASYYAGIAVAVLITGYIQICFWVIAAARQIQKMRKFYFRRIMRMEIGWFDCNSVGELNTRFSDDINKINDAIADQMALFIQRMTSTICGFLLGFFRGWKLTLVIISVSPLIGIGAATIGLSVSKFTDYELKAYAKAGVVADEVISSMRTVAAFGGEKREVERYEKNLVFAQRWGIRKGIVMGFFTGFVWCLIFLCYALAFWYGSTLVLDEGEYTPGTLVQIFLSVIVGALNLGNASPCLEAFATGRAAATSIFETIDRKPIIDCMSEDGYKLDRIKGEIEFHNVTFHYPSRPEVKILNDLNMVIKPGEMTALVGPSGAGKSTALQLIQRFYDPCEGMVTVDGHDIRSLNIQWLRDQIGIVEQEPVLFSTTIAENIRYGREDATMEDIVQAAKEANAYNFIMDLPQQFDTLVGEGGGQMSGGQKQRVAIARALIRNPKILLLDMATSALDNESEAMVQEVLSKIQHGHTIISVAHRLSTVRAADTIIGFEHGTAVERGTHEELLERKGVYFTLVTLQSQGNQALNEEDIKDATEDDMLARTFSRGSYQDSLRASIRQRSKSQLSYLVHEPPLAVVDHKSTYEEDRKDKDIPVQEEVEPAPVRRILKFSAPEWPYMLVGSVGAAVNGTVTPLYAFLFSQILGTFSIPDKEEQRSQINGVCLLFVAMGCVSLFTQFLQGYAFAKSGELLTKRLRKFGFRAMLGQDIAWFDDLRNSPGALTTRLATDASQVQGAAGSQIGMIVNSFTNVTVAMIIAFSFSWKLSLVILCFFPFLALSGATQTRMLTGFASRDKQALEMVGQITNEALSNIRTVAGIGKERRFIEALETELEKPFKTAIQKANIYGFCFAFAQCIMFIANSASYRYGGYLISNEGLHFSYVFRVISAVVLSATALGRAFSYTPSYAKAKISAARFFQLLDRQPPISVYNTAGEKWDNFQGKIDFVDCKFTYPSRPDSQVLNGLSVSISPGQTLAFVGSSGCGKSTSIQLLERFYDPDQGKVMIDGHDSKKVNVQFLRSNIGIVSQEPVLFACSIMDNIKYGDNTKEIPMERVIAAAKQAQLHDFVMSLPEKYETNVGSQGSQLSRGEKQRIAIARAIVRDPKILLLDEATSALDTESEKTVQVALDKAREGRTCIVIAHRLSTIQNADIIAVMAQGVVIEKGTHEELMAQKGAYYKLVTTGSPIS
Chain of P-gp (P08183 whole entry): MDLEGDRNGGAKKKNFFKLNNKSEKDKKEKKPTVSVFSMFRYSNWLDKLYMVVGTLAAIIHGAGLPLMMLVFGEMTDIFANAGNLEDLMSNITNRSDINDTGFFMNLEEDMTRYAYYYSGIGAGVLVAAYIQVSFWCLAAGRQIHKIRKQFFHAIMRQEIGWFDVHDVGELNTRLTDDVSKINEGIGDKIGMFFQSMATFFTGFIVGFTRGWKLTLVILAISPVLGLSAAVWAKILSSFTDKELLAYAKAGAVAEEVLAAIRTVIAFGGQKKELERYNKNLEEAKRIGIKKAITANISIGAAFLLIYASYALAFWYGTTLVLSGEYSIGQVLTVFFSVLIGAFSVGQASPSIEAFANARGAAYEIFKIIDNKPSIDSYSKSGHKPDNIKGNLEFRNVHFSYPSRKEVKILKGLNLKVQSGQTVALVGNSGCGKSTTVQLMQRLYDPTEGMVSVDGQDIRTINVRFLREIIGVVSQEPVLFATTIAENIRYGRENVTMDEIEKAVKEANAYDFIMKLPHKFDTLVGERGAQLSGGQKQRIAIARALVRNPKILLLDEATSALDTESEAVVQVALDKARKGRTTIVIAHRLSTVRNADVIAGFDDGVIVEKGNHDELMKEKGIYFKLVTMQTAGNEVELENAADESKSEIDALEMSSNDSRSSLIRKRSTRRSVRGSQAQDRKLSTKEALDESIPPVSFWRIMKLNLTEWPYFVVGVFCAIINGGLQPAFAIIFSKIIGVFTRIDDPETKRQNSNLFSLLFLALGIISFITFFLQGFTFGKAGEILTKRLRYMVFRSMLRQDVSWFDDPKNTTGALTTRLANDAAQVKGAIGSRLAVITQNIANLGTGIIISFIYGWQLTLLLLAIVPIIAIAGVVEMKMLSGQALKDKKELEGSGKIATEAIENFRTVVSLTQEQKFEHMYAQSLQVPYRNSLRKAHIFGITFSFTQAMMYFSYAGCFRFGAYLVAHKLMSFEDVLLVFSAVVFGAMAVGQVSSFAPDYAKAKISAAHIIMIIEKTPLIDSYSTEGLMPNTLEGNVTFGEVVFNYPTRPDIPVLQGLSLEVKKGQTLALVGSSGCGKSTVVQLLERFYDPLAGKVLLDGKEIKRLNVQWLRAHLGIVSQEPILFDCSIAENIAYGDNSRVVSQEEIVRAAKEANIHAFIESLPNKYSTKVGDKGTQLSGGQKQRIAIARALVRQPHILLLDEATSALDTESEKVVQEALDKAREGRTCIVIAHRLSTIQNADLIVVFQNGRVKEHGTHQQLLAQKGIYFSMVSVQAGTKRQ

For `COc1ccc2c(O[C@@H]3C[C@H]4C(=O)N[C@]5(C(=O)NS(=O)(=O)C6CC6)C[C@H]5/C=C\CCCCN(C)C(=O)[C@@H]4C3)cc(-c3nc(C(C)C)cs3)nc2c1C` [Simeprevir, reference compound], in data set [1] (DDI study results), the “effect of Compound (III) on SMV or ODV” value is recorded as “no apparent effect”; the “increase of exposure caused by Odalasvir” value came to 1.6 ×; the “increase of exposure, effect of the three Compounds” value amounted to 1.6 ×. Also, the “increase of exposure on co-administration of Compounds I, II and III” value in data set [1] (human in vivo study (Example 1)) came out at 1.6 times. In addition, in data set [1] (human, in vivo), the “effect of Compound (III) on bioavailability of SMV or ODV” value is “does not alter” and the “increase of bioavailability of SMV by ODV” value was 1.6 fold. Besides, the “in vitro inhibition of MRP2” value in data set [2] is given as “strong/moderate”. Besides, the CYP inhibition potential result in [3] is reported as “limited”. For the same compound, in data set [4], the “in vitro inhibition of P-gp” value was “strong/moderate”. Also, in [5] (Compound (III) 400 mg, ODV 50 mg QD, SMV 100 mg QD), the “observed exposures in Cohort 1 / group (i)” value is “higher than anticipated”. Further, in data set [5] (in vivo), the “decrease of SMV exposure on reducing SMV dosing from 100 mg to 75 mg QD” value was “less than proportionally”. Besides, the “in vitro inhibition of OATP1B1” value in data set [6] is “strong in vitro inhibition”. Further, in [7], the “in vitro inhibition of BSEP” value is “strong/moderate”. In addition, in data set [8], the “increase in Rosuvastatin exposure” value is 3 fold. Moreover, the “increase in exposure of Digoxin” value in data set [9] is on record as 35%. In addition, the t1/2term in [10] (Arm 1 (reference): single agents) was 8.3 ± 1.8 h. Moreover, the t1/2term in [10] (Arm 2: FDC02) was determined as 8.7 ± 2.3 h. Besides, in data set [10] (Arm 3: FDC04 (SMV 100 mg + ODV 50 mg spray dried with HPMC-AS L 1/3 w/w + Compound (III) 800 mg)), the highest concentration (Cmax) came to 906 ± 321 ng/mL. For the same compound, in [10] (Arm 3: FDC04), the AUClast came to 12893 ± 5828 ng·h/mL, the “AUC∞” value was determined as 13449 ± 6015 ng·h/mL and the t1/2term is recorded as 9.1 ± 1.6 h. Further, the t1/2term in data set [10] (Arm 4: FDC01) worked out at 8.5 ± 1.5 h.
